A melting point compilation (Tetko et al.; mined from patent text by program, amines drawn as free bases though some values may be those of a salt)

Row | SMILES | melting point
1 | COCc1cccc(-c2c(Cl)ncn2-c2ccc(S(C)(=O)=O)cc2)c1 | 178 °C
2 | Cc1c(C)c2c(c(C)c1N)OC(C)(C)C2Cc1ccccc1 (centres undefined) | 75 to 76 °C
3 | CCc1nc(-c2ccco2)c2ncn(Cc3ccc(OC)cc3)c2n1 | 119 to 120 °C
4 | Cc1ccc(NC(=O)OCc2ccco2)cc1NC(=O)OCc1ccco1 | 154 to 156 °C
5 | Cc1cc(-c2ccccc2)nn1C(C)C(=O)N(C)C (centres undefined) | 98 to 99 °C
6 | Nc1c([N+](=O)[O-])sc2c(Cl)cc(Cl)cc12 | 290 to 292 °C
7 | CC1(O)c2ccccc2C2=NCCCN21 (centres undefined) | 199 to 201 °C
8 | c1cn(Cc2ccc3c(c2)Cc2c(-c4ccsc4)n[nH]c2-3)cn1 | 255 to 260 °C
9 | Cc1nc(Cn2c(=O)sc3cc(F)c([N+](=O)[O-])cc32)no1 | 192 to 193 °C
10 | CC(=O)Nc1cccc2c1S(=O)(=O)N=C2C1=C(O)C(C(C)(C)C)N(Cc2ccc(F)cc2)C1=O (centres undefined) | 164 to 167 °C
11 | COc1cccc(Oc2c(NS(=O)(=O)c3ccc(C(C)(C)C)cc3)ncnc2OCCOc2ncc(C(C)O)cn2)c1 (centres undefined) | 133 to 135 °C
12 | Cc1cncn1CC#CCN1CCNC1=O | 163 to 167 °C
13 | O=C(Nc1cc(S(=O)(=O)N2CCC(O)C2)sc1Cl)c1cnn2c(C(F)F)cc(-c3ccc(C(F)(F)F)cc3)nc12 (racemic) | 274 °C
14 | O=C1CCC(c2ccc(NC(=O)C3CC3(Cl)Cl)cc2)=NN1 (centres undefined) | 267 to 268 °C
15 | CC(C(=O)O)c1cccc2cn[nH]c12 (centres undefined) | 171 to 176 °C
16 | COCCN(CCOC)c1ccc(NC(=O)c2ccc(C)c(Nc3nccc(-c4cccnc4)n3)c2)cc1C(F)(F)F | 156 to 157 °C
17 | CCOC(=O)c1cc(SC#N)c(Br)cc1N | 149 to 150 °C
18 | CCCc1[nH]c2cc(C(N)=O)ccc2c1C(=O)C=C(C)C | 179 to 181 °C
19 | CCCCCC(CCn1ccnc1)SCc1ccc(Cl)cc1Cl (centres undefined) | 124 to 126 °C
20 | CC(C)c1nn(-c2ccc(C(F)(F)F)cc2)cc1COc1cccc(CC(=O)O)c1 | 92 to 93 °C
21 | Cc1nc(C=NN(C)C)c2n1-c1ccc(Cl)cc1C(c1ccccc1Cl)=NC2 | 238 to 242 °C
22 | Cc1nc(N)c2nc(C)n(CCOCCNC(=O)N3CCOCC3)c2c1C | 205 to 207 °C
23 | CCCCNC(=O)c1ccc(S(=O)(=O)NCCCC)o1 | 69.4 °C

Row | SMILES | melting point
24 | CN(C)S(=O)(=O)C=C(C(=O)C1CCCCC1)c1cccc([N+](=O)[O-])c1 | 115 to 118 °C
25 | O=C(O)CCC1CC(O)C(=O)N1 (centres undefined) | 129 to 132 °C
26 | CCCCC[C@H]1CC[C@H](CCc2ccc(O)c(C#N)c2C#N)CC1 | 100 to 102 °C
27 | S=c1nc(-c2cccnc2Cl)[nH]n1Cc1ccccc1 | 155 to 156 °C
28 | CCOC(=O)C(C#N)=NC=C(N)c1ccccc1 | 139 to 140 °C
29 | CCOCc1c(-c2ccccc2)oc2c(C(=O)NCCCN3CCN(c4ccccc4OC)CC3)cccc2c1=O | 129 to 133 °C
30 | CC1=NC(=NOC(=O)N(C)C)SC1(C)C | 108 to 110 °C
31 | COc1ccc(C(C)C)cc1-c1cc(C(=O)NCCc2ccccc2)c(OCc2ccccc2)cc1OCc1ccccc1 | 138 to 140 °C
32 | CN(C(=O)C1CC1)c1cccc(-c2ccnc3c(C(=O)c4ccccc4)cnn23)c1 | 168 to 170 °C
33 | Clc1nc2ccccc2c2c1ncn2Cc1ccccn1 | 217 to 220 °C
34 | CCOC(=O)C(=O)Nc1cc(C(F)(F)F)c(Cl)cc1[N+](=O)[O-] | 96.5 to 97.5 °C
35 | O=C1O[C@@H](CNC(=S)C(F)F)CN1c1ccc(C2CCS(=O)CC2)c(F)c1 (some centres undefined) | 192 to 194 °C
36 | CC1(C)CCC(C)(C)c2cc(-c3cc(-c4ccc(C(=O)O)cc4)ccc3-c3ccccc3)c(O)cc21 | 145 °C
37 | CCC(=O)N[C@@H](C)C(=O)N1CCC[C@H]1C(=O)NC1CCCC1 | 172 to 173 °C
38 | C/C(=C\c1ccc(OC(C)C)cc1Oc1ncc(C(F)(F)F)cc1Cl)C(=O)NS(=O)(=O)NCCc1ccccc1 | 147 to 148 °C
39 | NC(=S)NN=C(CNC(=O)c1ccccc1)c1ccccc1 | 171 to 172 °C
40 | Cc1nn(C)c2c1N=CN1CC(C)N=C21 (centres undefined) | 115 to 117 °C
41 | COC(=O)C(=O)NCC(C#Cc1ccccc1)c1ccc(OC)c(OC2CCCC2)c1 (racemic) | 120 to 124 °C
42 | C=CCN1C(=S)N(c2cccc(Oc3ccccc3)c2)C(=O)C1C (centres undefined) | 88 °C
43 | Cc1ccc(-c2cccc(C(=O)O)n2)cc1C(=O)NCC12CC3CC(CC(C3)C1)C2 | 227 °C
44 | O=C(NCc1ccc(C(F)(F)F)cc1)c1cnc(Cl)nc1N1CCCC1 | 170 to 171 °C
45 | CC(C)(C)OC(=O)CC(NC(=O)C1CCCN2C(=O)CCC(NC(=O)c3ccccc3)C(=O)N12)C(=O)COC(=O)c1c(Cl)cccc1Cl (centres undefined) | 102 to 107 °C
46 | CCC(Cc1ccccc1-c1ccccc1)C(=O)O (centres undefined) | 91.2 to 94 °C

Row | SMILES | melting point
47 | NC(=O)C[C@H](NC(=O)c1ccc(OCc2ccccc2)cc1OCc1ccccc1)C(=O)N1CCN(Cc2ccccc2)CC1 | 66 to 68 °C
48 | Fc1cccc(F)c1Cn1c(-c2c(F)cccc2F)nc2c(CCl)cccc21 | 143 to 144 °C
49 | CCCCCCCC(=O)N1CCN(c2ccc3c(c2)N2CCN=C2C(c2ccccc2)=[N+]3[O-])CC1 | 212 to 213 °C
50 | CCCNC(=O)C(C)Cc1ccc2c(c1)c(Cc1ccc(C(=O)O)cc1OC)cn2CCC (single isomer, unassigned; (-)) | 85 to 93 °C
51 | CCCCCCCCNC(=O)N1CCC(S(=O)(=O)c2ccc(CCNC[C@H](O)COc3ccc(O)c(C)c3)cc2)CC1 | 58 to 71 °C
52 | Fc1ccc(C2=C(c3ccccc3)N(C(F)(F)F)CO2)cc1F | 146 to 148 °C
53 | CCn1c(-c2sc(NC(=O)c3ccncc3)nc2-c2ccco2)cccc1=O | > 300 °C
54 | CC(C)(C)OC(=O)NC1CCCC2(CCCC2)NC1=O (centres undefined) | 180 to 181 °C
55 | COc1ccc2c(c1)Sc1ccc(SC)cc1C(O)C2 (centres undefined) | 122 to 124 °C
56 | O=C(Cl)c1cc2ccccc2oc1=O | 138 to 141 °C
57 | Clc1ccc(-c2cc(C3CC3)n3ncc(I)c3n2)cc1 | 189 to 190 °C
58 | CN1C(=O)C(C)(C)C(=O)N(C)c2cc(C(=O)O)ccc21 | > 275 °C
59 | Cn1cc(C2=C(c3cn(CCCNc4ncccc4[N+](=O)[O-])c4ccccc34)C(=O)NC2=O)c2ccccc21 | 218 to 220 °C
60 | CC(C)SC(=O)CCS(=O)(=O)C(C)C | 45 to 47 °C
61 | CN(C)C=Cc1[nH]c(=O)ccc1C(=O)c1ccccc1 | 202 to 204 °C
62 | Cc1cc(C(N)=O)c2c(c1)C(C(Cl)(Cl)Cl)OC(C(Cl)(Cl)Cl)O2 (centres undefined) | 281 to 283 °C
63 | CCOP(=O)(CC(=O)NNc1nc2ccc(C(F)(F)F)cc2n(OCc2ccccc2)c1=O)OCC | 163 to 166 °C
64 | O=C(CCc1cc(C2CCCCC2)c(O)c(C2CCCCC2)c1)NCCCCCCNC(=O)CCc1cc(C2CCCCC2)c(O)c(C2CCCCC2)c1 | 28 °C
65 | CCn1cc(C(=O)O)c(=O)cc1-c1cccc(N)c1 | 145 to 146 °C
66 | COC(=O)c1c(C(=O)OC)c(-c2ccc(OC)cc2)n2c1Cc1cc(OC)ccc1-2 | 240 to 242 °C
67 | OC(Cc1ccc(F)cc1)c1ccc(F)cc1 (centres undefined) | 48 to 50 °C
68 | c1csc(CNc2nc(-n3ccnc3)nc3ccccc23)c1 | 234 to 235 °C
69 | COC(=O)CCC#Cc1cc(Cl)ccc1N | 67 °C
